From ChEMBL document CHEMBL1152320, “Diterpene formamides from the tropical marine sponge Cymbastela hooperi and their antimalarial activity in vitro” (J Nat Prod, 2009)
Values after ≈ are worked out from the molar mass of the structure shown.

Experiments:
Plasmodium falciparum [1] = experiment: Antiplasmodial activity after 48 hrs against Plasmodium falciparum FCR3F86 by [3H]hypoxanthine uptake; assay type: functional, organism-based
Plasmodium falciparum [2] = experiment: Antiplasmodial activity after 48 hrs against Plasmodium falciparum W2 by [3H]hypoxanthine uptake; assay type: functional, organism-based
Plasmodium falciparum [3] = experiment: Antiplasmodial activity after 48 hrs against Plasmodium falciparum D6 by [3H]hypoxanthine uptake; assay type: functional, organism-based
KB = experiment: Cytotoxicity against human KB cells assessed as [3H]hypoxanthine incorporation after 48 hrs; assay type: functional, cell-based

IC50 (Plasmodium falciparum [1]) [µg/mL]	IC50 (Plasmodium falciparum [2]) [µg/mL]	IC50 (Plasmodium falciparum [3]) [µg/mL]	Structure (SMILES)	IC50 (KB) [µg/mL]
14.8 (≈ 41 µM)			C[C@@H]1C[C@@H]2C[C@H](C)[C@H]3CC[C@](C)(NC=O)[C@H]4CC[C@@H]([C@@H]2[C@H]34)[C@]1(C)NC=O	
0.2 (≈ 0.584 µM)	0.6 (≈ 1.75 µM)	0.8 (≈ 2.34 µM)	[C-]#[N+][C@]1(C)[C@H](C)C[C@@H]2C[C@H](C)[C@H]3CC[C@](C)(NC=O)[C@H]4CC[C@H]1[C@@H]2[C@H]34	> 5
> 90			C=C(C)C[C@@H]1C[C@H](C)[C@H]2CC[C@](C)(NC=O)[C@H]3CCC(=C)[C@@H]1[C@H]23 (relative stereo)	
> 100			C[C@H]1C[C@H]2CC(C)(C)C=C3CC[C@H]4[C@@H]([C@@H]1CC[C@]4(C)NC=O)[C@@H]32 (relative stereo)	
63 (≈ 200 µM)			C=C1CC[C@H]2[C@H]3[C@H](CC[C@]2(C)NC=O)[C@@H](C)C[C@H](C=C(C)C)[C@H]13 (relative stereo)	
0.0004 (≈ 0.00109 µM)	0.0008 (≈ 0.00218 µM)	0.0002 (≈ 0.000545 µM)	O=C1C(O)=C([C@H]2CC[C@H](c3ccc(Cl)cc3)CC2)C(=O)c2ccccc21 [ATOVAQUONE]	> 5
